Test results from US4659691A, “Novel cyclic Hexapeptide LHRH antagonists” (Merck & Co., Inc., priority 1985, dated 1987).
Where a SMILES comes first, the peptide text is derived from it. [ ]: non-standard residue; d: D form.

System: rat pituitary cells
Experiment: Isolated rat pituitary cell culture system: antagonism of LH-RH-stimulated LH release
Type: cell-based
Procedure: Cyclic hexapeptides of the present invention are evaluated as antagonists of LH-RH in an in vitro pituitary cell culture system. This assay system is described in Vale and Brant, Methods Enzymol, 37, 82 (1975), hereby incorporated by reference for this purpose.
For purposes of illustration, the data for cyclo-[Tyr-D-Trp-Leu-Arg-Trp-Pro] (5) in this assay are presented.
At a dose range of 10^-5 to 10^-9 M, compound 5 was tested in combination with a single dose of LHRH (luteinizing hormone release hormone) on rat pituitary cells in vitro for 60 minutes.

SMILES: CC(C)C[C@@H]1NC(=O)[C@@H](Cc2c[nH]c3ccccc23)NC(=O)[C@H](Cc2ccc(O)cc2)NC(=O)[C@@H]2CCCN2C(=O)[C@H](Cc2c[nH]c3ccccc23)NC(=O)[C@H](CCCNC(=N)N)NC1=O [Compound 5, cyclo-(Tyr-D-Trp-Leu-Arg-Trp-Pro)] (cyclo(LRWPY[dW]))
- reduction of LH release (all lower doses of compound 5 (below 10^-5 M) in the presence of 5×10^-7, 10^-7, 5×10^-8 and 10^-8 M LHRH): essentially ineffective
- antagonism to LHRH (compound 5 at 10^-5 M, LHRH at 10^-6, 5×10^-7, 5×10^-8, 10^-8, 5×10^-9, 10^-9 and 5×10^-10 M, 60 minutes): significantly antagonistic
- reduction of LH release (compound 5 at 10^-7, 10^-8 and 10^-9 M in the presence of 10^-6 M LHRH, 60 minutes): significantly reduced LH release
- effect on LH release (compound alone) (compound 5 at 10^-7 M, no LHRH): does not affect LH release
- overall conclusion on LHRH antagonism (greatest antagonistic effect at lower doses of LHRH): antagonistic to LHRH
- inhibition of LH release, dose relation (in the presence of 5×10^-9, 10^-9 and 5×10^-10 M LHRH, greatest antagonism at 10^-9 M LHRH): significant dose related inhibition
